Results as given in US8765433B2, “Alcohol dehydrogenases (ADH) useful for fermentive production of lower alkyl alcohols” (priority 2009, dated 2014).

Assays:
Type in all cases: biochemical
[1] = target: T1, horse liver ADH (HLADH), SEQ ID NO: 21 (Equus caballus, UniProt P00327); assay: isobutanol oxidation kinetics; conditions: 30° C., pH 8.8, 7.5 mM NAD
T1 construct: purchased Sigma A-6128
Protocol: (§1) As a routine practice, the crude extracts and purified proteins were assayed for butanol oxidation activity, in order to ensure that the recombinant proteins were active throughout the purification process. […] Alcohol oxidation activities were carried out in 50 mM sodium phosphate buffer at pH 8.8 and aldehyde reduction reactions were assayed in 190 mM potassium phosphate buffer at pH 7.0. Depending on the nature of reaction being carried out, the enzyme and cofactor stocks were diluted in the reaction buffers at the respective pHs. Either buffer or cell extract prepared from the proprietary E. coli strain (with no ADH plasmid) was used as the negative control for assays with purified protein and cell-free extracts, respectively.
(§2) Kinetic constants of the ADH enzymes were calculated and compared to identify those candidate ADH enzymes with the most desirable properties for the conversion of isobutyraldehyde to isobutanol in the last step of the engineered pathway for isobutanol production. The assays for determining the kinetic constants were carried out using initial rates from the assays described above. […] The concentration of a given enzyme was such that it was conducive for the measurement of initial velocities over a 1-min time course. For each enzyme, Michaelis-Menten plots were generated with a broad range of substrate concentrations. Rough estimates of KM were obtained, based on which the assays were redesigned so as to use substrate concentrations in the range 0.5 to 10 times the KM value, to be able to obtain the appropriate kinetic constants. […] When calculating the KI for isobutanol, the same reactions were carried out in the presence of varying concentrations of isobutanol (generally 0-535 mM) in the reaction (see FIG. 7, for example). Reactions with isobutanol substrate were performed at 30° C. in 50 mM Sodium phosphate buffer, pH 8.8, containing 7.5 mM NAD. The Enzyme kinetics module (Version 1.3) of SigmaPlot 11 (Systat Software, Inc.) was used to fit data to Michaelis-Menten equations and calculate the kinetic constants. The kcat/KM is derived from the individual numbers of kcat and KM and not an experimentally determined value. The ratios of the KM, KI, and kcat/KM for each candidate enzyme as compared to the same parameter for SadB are given in Table 9.
(§3) For those enzymes marked with an asterisk in Table 7, at least 3 assays were performed with separate preparations of the enzyme. All other numbers are values from either one assay or are averages from 2 assays performed with the same enzyme sample.

[2] = test system: Achromobacter xylosoxidans SadB (SadB), SEQ ID NO: 26; assay: isobutanol oxidation kinetics; conditions: 30° C., pH 8.8, 7.5 mM NAD
Protocol: as §1, §2, §3

[3] = target: T2, Beijerinckia indica subsp. Indica ATCC 9039 ADH (BiADH), SEQ ID NO: 31 (Beijerinckia indica, UniProt B2IGW3); assay: isobutanol oxidation kinetics; conditions: 30° C., pH 8.8, 7.5 mM NAD
T2 sequence (B2IGW3 1-347): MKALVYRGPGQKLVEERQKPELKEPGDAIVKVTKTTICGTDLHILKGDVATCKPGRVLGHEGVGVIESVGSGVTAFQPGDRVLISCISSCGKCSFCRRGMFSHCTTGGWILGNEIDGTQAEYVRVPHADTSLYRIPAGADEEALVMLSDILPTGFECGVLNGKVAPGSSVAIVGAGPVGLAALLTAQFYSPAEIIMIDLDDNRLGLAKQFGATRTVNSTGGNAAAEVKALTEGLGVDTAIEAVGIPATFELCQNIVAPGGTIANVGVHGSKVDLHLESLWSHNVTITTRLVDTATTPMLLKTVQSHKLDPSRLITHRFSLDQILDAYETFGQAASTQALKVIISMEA
Protocol: as §1, §2, §3

[4] = target: T3, Clostridium beijerinckii ADH (CbADH), SEQ ID NO: 29 (Clostridium beijerinckii, UniProt P25984); assay: isobutyraldehyde reduction kinetics (A340, initial rates); conditions: relative to SadB
T3 construct: hexa-histidine (pBADHisA) (N); made in house; host or cells: E. coli (BL21-CodonPlus or a proprietary E. coli strain)
T3 sequence (P25984 1-351): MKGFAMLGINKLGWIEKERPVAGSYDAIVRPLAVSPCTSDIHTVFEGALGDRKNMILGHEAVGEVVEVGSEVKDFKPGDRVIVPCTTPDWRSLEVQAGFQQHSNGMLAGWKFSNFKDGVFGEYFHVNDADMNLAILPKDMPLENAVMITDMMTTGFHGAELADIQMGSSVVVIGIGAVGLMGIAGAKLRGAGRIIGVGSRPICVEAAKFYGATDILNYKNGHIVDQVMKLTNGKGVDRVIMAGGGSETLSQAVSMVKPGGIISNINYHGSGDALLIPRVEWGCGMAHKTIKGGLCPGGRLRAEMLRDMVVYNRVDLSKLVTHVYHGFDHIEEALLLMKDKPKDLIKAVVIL
Text: This example describes preparation of ADH-gene constructs for over-expression/purification and measurement of enzyme activities using a time-course assay. Horse-liver ADH (HLADH; A-6128) was purchased from Sigma. Achromobacter xylosoxidans SadB (SadB), Saccharomyces cerevisiae ADH6 (ScADH6) and ADH7 (ScADH7), Entamoeba histolytica ADH1 (EhADH1), Bos Taurus Aldehyde Reductase (BtARD), Beijerinckia indica subsp. Indica ATCC 9039 (BiADH), Clostridium beijerinckii ADH (CbADH), Rana perezi ADH8 (RpADH8), Rattus norvegicus ADH1 (RnADH1), Thermus sp. ATN1 ADH (TADH), Phenylobacterium zucineum HLK1 ADH (PzADH), Methylocella silvestris BL2 ADH (MsADH), Acinetobacter baumannii AYE ADH (AbADH), Geobacillus sp. WCH70 ADH (GbADH), Vanderwaltozyma polyspora DSM 70294 ADH (VpADH), Mucor circinelloides ADH (McADH), and Rhodococcus erythropolis PR4ADH (ReADH) were the candidates for which subclones were prepared for protein expression and purification.
as §1
Kinetic constants of the ADH enzymes were calculated and compared to identify those candidate ADH enzymes with the most desirable properties for the conversion of isobutyraldehyde to isobutanol in the last step of the engineered pathway for isobutanol production. The assays for determining the kinetic constants were carried out using initial rates from the assays described above. […] The concentration of a given enzyme was such that it was conducive for the measurement of initial velocities over a 1-min time course. For each enzyme, Michaelis-Menten plots were generated with a broad range of substrate concentrations. Rough estimates of KM were obtained, based on which the assays were redesigned so as to use substrate concentrations in the range 0.5 to 10 times the KM value, to be able to obtain the appropriate kinetic constants. […] Reactions with isobutanol substrate were performed at 30° C. in 50 mM Sodium phosphate buffer, pH 8.8, containing 7.5 mM NAD. The Enzyme kinetics module (Version 1.3) of SigmaPlot 11 (Systat Software, Inc.) was used to fit data to Michaelis-Menten equations and calculate the kinetic constants. The kcat/KM is derived from the individual numbers of kcat and KM and not an experimentally determined value.
as §3

T1 sequence (P00327 whole entry): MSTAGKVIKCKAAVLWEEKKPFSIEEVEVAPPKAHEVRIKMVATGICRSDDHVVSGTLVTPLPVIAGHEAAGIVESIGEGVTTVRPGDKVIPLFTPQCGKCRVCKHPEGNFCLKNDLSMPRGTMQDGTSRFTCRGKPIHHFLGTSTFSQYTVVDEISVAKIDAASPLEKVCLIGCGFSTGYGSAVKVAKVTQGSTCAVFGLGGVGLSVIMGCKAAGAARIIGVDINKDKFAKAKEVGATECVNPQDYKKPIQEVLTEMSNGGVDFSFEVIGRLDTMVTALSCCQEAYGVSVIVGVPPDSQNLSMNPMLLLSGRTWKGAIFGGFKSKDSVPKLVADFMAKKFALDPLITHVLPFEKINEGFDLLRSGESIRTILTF

Q: With `CC(C)CO` [isobutanol, 2-methylpropan-1-ol] as the molecule, how does the “kcat (isobutanol oxidation)” value [1] read?
A: [Isobutanol oxidation: kcat = 5 sec^−1;

Q: What about the Km [2] of the same molecule?
A: 24 mM

Q: And the “kcat (isobutanol oxidation)” value [2]?
A: [Isobutanol oxidation: kcat = 2 sec^−1;

Q: And the “kcat (isobutanol oxidation)” value [3]?
A: [Isobutanol oxidation: kcat = 9 sec^−1;

Q: For `CC(C)C=O` [isobutyraldehyde], which “KM as a percentage of the same parameter for SadB” value [4] is on record?
A: 150%

Q: What about the “kcat as a percentage of the same parameter for SadB” value [4] of the same molecule?
A: 113%

Q: And the “kcat/KM as a percentage of the same parameter for SadB” value [4]?
A: 81%
